The source of these data is patent US5856506A, “Phosphatase inhibitors and methods of use thereof” (University of Pittsburgh, priority 1997, dated 1999).

Read-outs that look alike come from different tables or passages of the source. A value given as a limit tells only on which side of the number the result lay.

Experiment [1] deals with PP1. Kind of experiment: Phosphatase activity by [32P] release from phosphorylase-a or phosphohistone (Honkanen method). The conditions noted are these: 100 μM inhibitor; none = 100. Type of experiment: biochemical. On the procedure:
(§1) It has been found in accordance with the present invention that compounds of formula I are capable of inhibiting serine/threonine protein phosphatases. Inhibition of serine/threonine protein phosphatases is defined herein as inhibition of the activity of one or more of PP1, PP2A or PP3 at a concentration of 100 μM or less of the inhibitor compound. In a preferred embodiment, the activity of the phosphatase is inhibited by at least 10%. In more preferred embodiments, the activity of the phophatase is inhibited by at least 25%, or even more preferably, by at least 50%. Inhibition of PP1, PP2A or PP3 can be assessed by methods known to one of ordinary skill in the art. Suitable assays are described, for example by Honkanen et al. (1994) Toxicon 32:339 and Honkanen et al. (1990) J. Biol. Chem. 265: 19401, the disclosures of which are incorporated herein by reference. Briefly, phosphatase activity is determined by quantifying the [^32 p] released from a ^32 p-labeled substrate such as phosphohistone or phosphorylase-a. Decreased [^32 p] release in the presence of the compounds of the present invention relative to control samples provides a measure of the ability of the compounds of the invention to inhibit PP1, PP2A or PP3.
(§2) Phosphatase activity and the inhibitory activity of the compounds of Table 1 were determined by the method of Honkanen et al. (1994) Toxicon 32:339. Briefly, phosphatase activity against phosphorylase-a or phosphohistone was 25 determined by the quantification of liberated [^32 p]. Assays, 80 μl total volume, containing 50 mM Tris-HCl, pH 7.4, 0.5 mM DTT, 1 mM EDTA (assay buffer) and [^32 p]phosphoprotein (1-2 μM PO4), were conducted as described previously (Honkanen et al., 1991 Mol. Pharmac. 40:577). Dephosphorylation reactions were routinely conducted for 5-10 min. using phosphorylase-a as a substrate and for 10-20 min. using phosphohistone. In all assays the dephosphorylation of substrate was kept to less than 10% of the total phosphorylated substrate available, and the reactions were adjusted to ensure that enzyme activity was linear with respect to enzyme concentration and time. [^32 p]Phosphate liberated by the enzymes was extracted as a phosphomolybdate complex and measured according to the methods of Killilea et al. (1978) Arch. Biochem. Biophys. 191:638. Inhibition of protein phosphatase activity by inhibitors was determined by adding the 100 μM of inhibitors to the enzyme mixture 5-10 min. prior to initiating the reaction with the addition of substrate.

Experiment [2] deals with PP2A (Bos taurus, UniProt P67774). The experiment is described as above. Type of experiment: biochemical. As to conditions: 100 μM inhibitor; none = 100; read-out: PP2A, percent inhibition relative to control (100%). As for the experimental part: as §1, §2
In experiment [3] the test system is PP3. The experiment is described as above. As to conditions: 100 μM inhibitor; none = 100. The class given is biochemical. On the procedure: as §1, §2
The target of experiment [4] is T1, catalytic subunit of bovine cardiac muscle PP2A (Bos taurus, UniProt P67774).
T1 construct: purchased Gibco-BRL, Gaithersburg, Md; host or cells: bovine cardiac muscle
Kind of experiment: PP2A activity with fluorescein diphosphate substrate in 96-well plates. The conditions noted are these: FIG. 6. Type of experiment: biochemical. On the procedure: FIG. 6 is a graph of inhibition of PP2A activity by compound 1d. The catalytic subunit of PP2A was incubated with vehicle alone (control), calyculin A (10 nM) or compound 1d (100 uM), and the dephosphorylation of the substrate fluorescein diphosphate determined spectro-photometrically. Mean results of two independent experiments are shown; bars indicate the range.
In another suitable assay, the ability of the compounds of the present invention to inhibit the activity of protein phosphatase PP2A is assessed. The activity of the catalytic subunit of bovine cardiac muscle PP2A (Gibco-BRL, Gaithersburg, Md.) is measured in 96-well microtiter plates using the substrate fluorescein diphosphate as follows. […] Fluorescence emission from the product is measured spectrofluorometrically, for example with Perseptive Biosystems Cytofluor II (Framingham, Mass.) (excitation filter, 485 nm; emission filter, 530 nm). The rate of increase in absorbance due to formation of dephosphorylated substrate is proportional to phosphatase activity. Thus, decreased absorbance relative to control samples provides a measure of the ability of the present compounds to inhibit the phosphatase.
The activity of the catalytic subunit of bovine cardiac muscle PP2A (Gibco-BRL, Gaithersburg, Md.) was measured with fluorescein diphosphate (Molecular Probes, Inc., Eugene, Oreg.) as a substrate in 96-well microtiter plates. […]

In experiment [5] the test system is Recombinant human CDC25B. The experiment in a line: CDC25B phosphatase assay, GST fusion protein, fluorescein diphosphate. Type of experiment: biochemical. The conditions noted are these: none = 100; 1 hour preincubation; concentration not given (0.3-100 μM tested). As for the experimental part:
The compounds of the present invention are also capable of inhibiting dual specificity phosphatases, for example CDC25A and CDC25B. Phosphatases CDC25A and CDC25B are disclosed in U.S. Pat. No. 5,441,880. Inhibition of dual specificity phosphatases is defined herein as inhibition of the activity of CDC25A and/or CDC25B at a concentration of 100 μM of the inhibitor compound. In a preferred embodiment, the activity of the phosphatase is inhibited by at least 10%. In more preferred embodiments, the activity of the phophatase is inhibited by at least 25%, or even more preferably, by at least 50%. The ability of the compounds of the present invention to inhibit the phosphatases can be determined by measuring the effect of the compounds on the ability of CDC25 or CDC25B to dephosphorylate a substrate. Appropriate methods are known to those of ordinary skill in the art, and include, for example, calorimetric assays. A suitable assay is described in U.S. Pat. No. 5,441,880, the disclosure of which is incorporated herein by reference. […] The assay may be performed as a rapid calorimetric microtitration plate assay.
Compounds 1a-1r were assessed for ability to inhibit CDC25A and CDC25B activity. Recombinant human CDC25A and CDC25B were obtained as a glutahione-S-transferase (GST) fusion protein using human cDNA and standard molecular biological methods. The cDNA constructs are in a plasmid that is expressed in E. coli under the control of isopropyl-beta-D-[…] (IPTG). The bacterial pellet was disrupted by sonication, and centrifuged at 10,000×g. Using glutathione-agarose beads, the fusion protein was purified from postmicrosomal supernant fraction as described by Baratte et al. (1992) Anticancer Res. 12: 873-880. Phosphatase activity was assayed with a spectrofluorimeter under the following conditions: 1 unit (1 U=amount of protein that induces 33 fluoresence units/minute of product) of fusion protein in a final incubation mixture (150 μL) comprised of 25 mM Tris (pH=8.0), 5 mM EDTA, 33 μg/ml BSA, and 20 μM fluorescein diphosphate in 96-well microtiter plates. Plates were preincubated for 1 hour with 0 (control), 0.3, 1, 3, 10, 30, 100 μM compounds at room temperature. After the 1 hour incubation at room temperature, fluorescence of the fluorescein product (Ex. 485 nm; Em. 530 nm) were measured with a Biosystems Cytofluor II (Framingham, Mass.).

Experiment [6] relates to human MDA-MB-231 breast cancer cells. Kind of experiment: Antiproliferative activity, tetrazolium reduction assay (Lazo method), 72 h. Type of experiment: cell-based. As to conditions: MDA-MB-231, 72 h. From the text: The ability of the compounds of the present invention to inhibit proliferation can be assessed by methods known to those of ordinary skill in the art. For example, proliferating cells can be contacted with a compound of the invention, and cell numbers determined. A reduction in cell number in treated versus untreated cells provides a measure of the ability of the present compounds to inhibit proliferation. In a preferred embodiment the cells to be treated are cancer cells, for example breast cancer cells such as the CDC25B+ breast cancer cells MDA-MB-231, which are available from the American Type Culture Collection (Accession No. HTB-26). The antiproliferative activity of the present compounds can also be measured by the assay described by Lazo et al. (1995) J. Biol. Chem. 270: 5506, the disclosure of which is incorporated herein by reference. The microtiter-based calorimetric assay is based upon the reduction of 3-[4,5-dimethylthiazol-2-yl]-2,5-diphenyl tetrazolium bromide by living cells, and permits evaluation of the cytostatic or cytotoxic actions of large numbers of compounds quickly in mouse embryonic fibroblasts and human CDC25B+ breast cancer cells. Briefly, exponentially growing CDC25B+ MDA-MB-231 cells are treated continuously with from 0 to 100 μM of a compound of the invention, and cell proliferation is determined calorimetrically after 72 hours by assessing the ability of the cells to reduce 3-[4,5-dimethylthiazol-2-yl]-2,5-diphenyl tetrazolium bromide.
Human MDA-MB-231 breast carcinoma cells were obtained from the American Type Culture Collection at passage 28 and were maintained for no longer than 20 passages. The cells were grown in RPMI-1640 supplemented with 1% penicillin (100 μg/mL) and streptomycin (100 μg/mL), 1% L-glutamate,and 10% fetal bovine serum in a humidified incubator at 37° C. under 5% CO2 in air. Cells were routinely found free of mycoplasma. To remove cells from the monolayer for passage or flow cytometry, cells were washed two times with phosphate buffer and briefly (<3 min) treated with 0.05% trypsin/2 mM EDTA at room temperature. After the addition of at least two volumes of growth medium containing 10W fetal bovine serum, the cells were centrifuged at 1,000×g for 5 min. Compounds were made into stock solutions using DMSO, and stored at -20° C. All compounds and controls were added to obtain a final concentration of 0.1-0.2% (v/v) of the final solution for experiments.
The antiproliferative activity of the compounds was determined by the method of Lazo et al. (1995) J. Biol. Chem. 270:5506. Briefly, cells (6.5×10^3 cells/cm^2) were plated in 96 well flat bottom plates for the cytotoxicity studies and incubated at 37° C. for 48 h. The plating medium was aspirated off 96 well plates and 200 μL of growth medium containing the compound was added per well. Compounds were used at from O to the highest available concentration which ranged from 30 to 100 μM. Plates were incubated for 72 h, and then washed 4× with serum free medium. After washing, 50 μL of 3-[4,5-dimethylthiazol-2-yl]-2,5-diphenyl tetrazolium bromide solution (2 mg/mL) was added to each well, followed by 150 μL of complete growth medium. Plates were then incubated an additional 4 h at 37° C. The solution was aspirated off, 200 μL of DMSO added, and the plates were shaken for 30 min at room temperature. Absorbance at 540 nm was determined with a Titertek Multiskan Plus plate reader. Biologically active compounds were tested at least 3 independent times.

Experiment [7] concerns PP1. As to conditions: cited from earlier work.
Experiment [8] concerns the target PP2A (Homo sapiens, UniProt P67775). As to conditions: background, literature, cited from earlier work.
Experiment [9] deals with PP3. As to conditions: background, literature; cited from earlier work.
Setting [10] is: somewhat selective but weak inhibitors.

As usually defined, the inhibition is the percentage by which the read-out fell short of the control. Read a low inhibition as a response near the control.

Sequence of PP2A (Homo sapiens, UniProt P67775) (P67775 whole entry): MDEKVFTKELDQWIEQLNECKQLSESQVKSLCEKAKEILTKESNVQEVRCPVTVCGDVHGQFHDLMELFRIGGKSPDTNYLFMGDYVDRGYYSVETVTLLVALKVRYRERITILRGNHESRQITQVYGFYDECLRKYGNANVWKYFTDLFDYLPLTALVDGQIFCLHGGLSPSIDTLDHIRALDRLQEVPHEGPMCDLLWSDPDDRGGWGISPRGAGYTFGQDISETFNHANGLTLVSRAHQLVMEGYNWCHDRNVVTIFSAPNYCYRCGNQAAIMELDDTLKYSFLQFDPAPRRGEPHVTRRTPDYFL
Sequence of PP2A (Bos taurus, UniProt P67774) (P67774 whole entry): as the sequence (P67775 whole entry) above
T1 sequence (P67774 whole entry): as the sequence (P67775 whole entry) above

In the case of `CCCCCCCCCC(=O)NC(CCC(=O)N(C)CCNC(=O)c1nc(-c2ccccc2)oc1-c1ccccc1)C(=O)O` (stereo not drawn) [Compound 1d], the “PP1 remaining activity, percent of control” value in [1] amounted to 53%. Besides, the PP2A remaining activity, % of control at 100 µM in experiment [2] turned out to be 69%. Further, the “PP3 remaining activity, percent of control” value in [3] is 33%. In addition, the inhibition at 100 µM in experiment [4] (100 μM) was determined as 50%. Besides, the “CDC25B activity remaining, percent of control” value in [5] stood at 91%.
On to `CCCCCCN(CCNC(=O)c1nc(-c2ccccc2)oc1C)C(=O)CCC(NC(=O)CCc1ccccc1)C(=O)O` (stereo not drawn) [Compound 1h], for which, in experiment [1], the “PP1 remaining activity, percent of control” value is 63%. Moreover, the PP2A remaining activity, % of control at 100 µM in [2] stood at 88%. In addition, the “PP3 remaining activity, percent of control” value in [3] is recorded as 17%. Besides, the “CDC25B activity remaining, percent of control” value in experiment [5] is on record as 69%. Further, in experiment [6] (Homo sapiens, MDA-MB-231, 72 h continuous treatment, read-out: concentration causing 50% growth inhibition), the IC50 amounted to 20000 nM. Further, the “concentration dependence of growth inhibition (in words)” value in [6] is listed as “no further cytotoxicity at higher drug concentrations”.
`C/C=C1/C(=O)N[C@@H](C(=O)O)[C@H](C)C(=O)N[C@@H](C(C)C)C(=O)N[C@@H](/C=C/C(C)=C/[C@H](C)[C@H](Cc2ccccc2)OC)[C@H](C)C(=O)N[C@@H](C(=O)O)CCC(=O)N1C` [Motuporin]: in experiment [7], the IC50 is under 1 nM.
For the compound `CO[C@H]([C@H](O)CC(=O)[C@@H](C)[C@@H](O)CC[C@@H](C)[C@@H]1O[C@]2(CC[C@@H](C)[C@H](CC[C@H](C)C(C)=O)O2)CC[C@@H]1C)[C@H](OC(=O)C[C@@H](O)C1=C(C)C(=O)OC1=O)C(C)C` [Tautomycin], the IC50 in [7] (background, literature) was about 15 nM; in experiment [8] it was about 15 nM; in experiment [9], about 15 nM.
As to `COC[C@@H]([C@H](O)[C@H](O)C(=O)NCC[C@H](C)c1nc(/C=C/C[C@@H]2O[C@]3(C[C@@H](O)[C@@H]2C)O[C@H]([C@H](C[C@H](O)[C@H](C)[C@H](O)[C@H](C)/C=C(C)/C(C)=C/C=C/C(C)=C\C#N)OC)[C@H](OP(=O)(O)O)C3(C)C)co1)N(C)C` [calyculin A], the “inhibition of PP2A activity (in words)” value in [4] (10 nM) is listed as “inhibited PP2A activity”. The IC50 in experiment [7] (background, literature) is about 0.3 nM; in experiment [8], about 0.3 nM; in experiment [9], about 0.3 nM.
On to `C[C@@]12C(=O)OC(=O)[C@]1(C)[C@H]1CC[C@@H]2O1` [cantharidine], for which the IC50 in experiment [8] (setting [10]) was 160 to 10000 nM.
Consider thyrsiferal-23-acetate, for which the IC50 in experiment [8] (setting [10]) was 160 to 10000 nM.
